ChEMBL document CHEMBL1201862, “PubChem BioAssay data set” (2004)
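Method: 48-hour compound exposure of cells in 96-well plates, five concentrations, linear interpolation of endpoints. GI50 marks 50% less growth.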 The source made the active and inactive calls. Rule as the data show it: active = GI50 up to about 1.1 µM and inactive = higher.

Columns and labels:
Test in all cases: growth of human tumour cells (NCI), 48 h
SNB-75 = tested on: SNB-75
LOX IMVI = tested on: LOX IMVI
MCF7 = tested on: MCF7
NCI-H226 = tested on: NCI-H226
CCRF-CEM = tested on: CCRF-CEM
A549 = tested on: A549
EKVX = tested on: EKVX
UACC-257 = tested on: UACC-257
HCT-116 = tested on: HCT-116
Hs-578T = tested on: Hs-578T
SK-MEL-5 = tested on: SK-MEL-5
RPMI-8226 = tested on: RPMI-8226
MOLT-4 = tested on: MOLT-4
TK-10 = tested on: TK-10
BT-549 = tested on: BT-549
SF-295 = tested on: SF-295
SR = tested on: SR
PC-3 = tested on: PC-3
RXF 393 = tested on: RXF 393
COLO 205 = tested on: COLO 205
DU-145 = tested on: DU-145
SW-620 = tested on: SW-620
OVCAR-4 = tested on: OVCAR-4
KM12 = tested on: KM12
ACHN = tested on: ACHN
HOP-62 = tested on: HOP-62
SK-MEL-28 = tested on: SK-MEL-28
SF-268 = tested on: SF-268
M14 = tested on: M14
UO-31 = tested on: UO-31
U-251 = tested on: U-251
A498 = tested on: A498
NCI-H460 = tested on: NCI-H460
OVCAR-5 = tested on: OVCAR-5
UACC-62 = tested on: UACC-62
OVCAR-8 = tested on: OVCAR-8
MDA-MB-435 = tested on: MDA-MB-435
HT-29 = tested on: HT-29
SK-MEL-2 = tested on: SK-MEL-2
MDA-MB-231 = tested on: MDA-MB-231
HCT-15 = tested on: HCT-15
786-0 = tested on: 786-0
Malme-3M = tested on: Malme-3M
MDA-N = tested on: MDA-N
SN12C = tested on: SN12C
T47D = tested on: T47D
IGROV-1 = tested on: IGROV-1
HL-60 = tested on: HL-60
HCC 2998 = tested on: HCC 2998
NCI/ADR-RES = tested on: NCI/ADR-RES
NCI-H522 = tested on: NCI-H522
NCI-H23 = tested on: NCI-H23
SF-539 = tested on: SF-539
HOP-92 = tested on: HOP-92
SNB-19 = tested on: SNB-19
OVCAR-3 = tested on: OVCAR-3
CAKI-1 = tested on: CAKI-1

In the case of O=c1[nH]c(=O)n(C/C=C/CO)nc1Br, the GI50 (SNB-75) is reported as > 100 µM (inactive), the GI50 (LOX IMVI) is reported as > 100 µM (inactive) and the GI50 (MCF7) is reported as > 100 µM (inactive). The GI50 (NCI-H226) was > 100 µM (inactive), the GI50 (CCRF-CEM) was > 100 µM (inactive) and the GI50 (A549) was > 100 µM (inactive). For the same molecule, the GI50 (EKVX) was > 100 µM (inactive), the GI50 (UACC-257) was > 100 µM (inactive) and the GI50 (HCT-116) was > 100 µM (inactive). For the same molecule, the GI50 (Hs-578T) was > 100 µM (inactive), the GI50 (SK-MEL-5) was > 100 µM (inactive) and the GI50 (RPMI-8226) was > 100 µM (inactive). For the same molecule, the GI50 (MOLT-4) was > 100 µM (inactive), the GI50 (TK-10) was > 100 µM (inactive) and the GI50 (BT-549) was > 100 µM (inactive). The GI50 (SF-295) was > 100 µM (inactive), the GI50 (SR) was > 100 µM (inactive) and the GI50 (PC-3) was > 100 µM (inactive). For the same molecule, the GI50 (RXF 393) was > 100 µM (inactive), the GI50 (COLO 205) was > 100 µM (inactive) and the GI50 (DU-145) was > 100 µM (inactive). For the same molecule, the GI50 (SW-620) was > 100 µM (inactive), the GI50 (OVCAR-4) was > 100 µM (inactive) and the GI50 (KM12) was > 100 µM (inactive). For the same molecule, the GI50 (ACHN) was > 100 µM (inactive), the GI50 (HOP-62) was > 100 µM (inactive) and the GI50 (SK-MEL-28) was > 100 µM (inactive). For the same molecule, the GI50 (SF-268) was > 100 µM (inactive), the GI50 (M14) was > 100 µM (inactive) and the GI50 (UO-31) was > 100 µM (inactive). For the same molecule, the GI50 (U-251) was > 100 µM (inactive), the GI50 (A498) was > 100 µM (inactive) and the GI50 (NCI-H460) was > 100 µM (inactive). For the same molecule, the GI50 (OVCAR-5) was > 100 µM (inactive), the GI50 (UACC-62) was > 100 µM (inactive) and the GI50 (OVCAR-8) was > 100 µM (inactive). For the same molecule, the GI50 (MDA-MB-435) was > 100 µM (inactive), the GI50 (HT-29) was > 100 µM (inactive) and the GI50 (SK-MEL-2) was > 100 µM (inactive). For the same molecule, the GI50 (MDA-MB-231) was > 100 µM (inactive), the GI50 (HCT-15) was over 100 µM and the GI50 (786-0) was > 100 µM (inactive). For the same molecule, the GI50 (Malme-3M) was > 100 µM (inactive), the GI50 (MDA-N) was > 100 µM (inactive) and the GI50 (SN12C) was > 100 µM (inactive). The GI50 (T47D) was > 100 µM (inactive), the GI50 (IGROV-1) was > 100 µM (inactive) and the GI50 (HL-60) was > 100 µM (inactive). For the same molecule, the GI50 (HCC 2998) was > 100 µM (inactive), the GI50 (NCI/ADR-RES) was > 100 µM (inactive) and the GI50 (NCI-H522) was > 100 µM (inactive). For the same molecule, the GI50 (NCI-H23) was > 100 µM (inactive), the GI50 (SF-539) was > 100 µM (inactive) and the GI50 (HOP-92) was > 100 µM (inactive). For the same molecule, the GI50 (SNB-19) was > 100 µM (inactive), the GI50 (OVCAR-3) was > 100 µM (inactive) and the GI50 (CAKI-1) was > 100 µM (inactive).
